According to patent US10508120B2, “TYK2 inhibitors and uses thereof” (Nimbus Lakshmi, Inc., priority 2017, dated 2019):

What was measured:
[1] = target: human TYK2 (JH2domain-pseudokinase) (Homo sapiens (Human), UniProt P29597); test: TYK2 JH2 Domain Binding Assay (KINOMEscan)
Method in brief: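 Pseudokinase domain binding was measured by qPCR of tagged, bead-retained kinase after 1 h room-temperature competition, with 0.9% DMSO and compound up to 30,000 nM in 3-fold steps. Hill-equation Kd, duplicate.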

Tyk2 kinase domain (DH1) = Tyk2 kinase domain (DH1) (Homo sapiens (Human), UniProt P29597); test: Tyk2 Radioactive Kinase Assay; format: biochemical; conditions: compound at 10 μM, ATP 10 μM; for inhibition at 10 µM: read-out: Tyk2 JH1% Inhibition @ 10 μM
Method in brief: (§1)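 Compounds were tested at a single concentration of 10 μM in a radiometric kinase format against each isolated kinase domain. Activity is reported as percent inhibition at that concentration.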

JAK2 kinase domain (JH1) = JAK2 kinase domain (JH1) (Homo sapiens (Human), UniProt O60674); test: JAK2 Radioactive Kinase Assay; format: biochemical; conditions: compound at 10 μM, ATP 10 μM; for inhibition at 10 µM: read-out: JAK2 JH1% Inhibition @ 10 μM
Method in brief: as §1

Tyk2 kinase domain (DH1), sequence (P29597 897-1176): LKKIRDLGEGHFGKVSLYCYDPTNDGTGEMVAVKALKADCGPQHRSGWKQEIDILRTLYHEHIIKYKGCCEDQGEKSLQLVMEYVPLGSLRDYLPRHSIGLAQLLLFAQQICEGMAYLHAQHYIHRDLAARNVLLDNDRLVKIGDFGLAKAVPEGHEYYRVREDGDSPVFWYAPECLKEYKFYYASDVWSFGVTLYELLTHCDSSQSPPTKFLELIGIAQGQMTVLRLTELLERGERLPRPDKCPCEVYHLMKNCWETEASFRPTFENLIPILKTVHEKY
JAK2 kinase domain (JH1), sequence (O60674 849-1124): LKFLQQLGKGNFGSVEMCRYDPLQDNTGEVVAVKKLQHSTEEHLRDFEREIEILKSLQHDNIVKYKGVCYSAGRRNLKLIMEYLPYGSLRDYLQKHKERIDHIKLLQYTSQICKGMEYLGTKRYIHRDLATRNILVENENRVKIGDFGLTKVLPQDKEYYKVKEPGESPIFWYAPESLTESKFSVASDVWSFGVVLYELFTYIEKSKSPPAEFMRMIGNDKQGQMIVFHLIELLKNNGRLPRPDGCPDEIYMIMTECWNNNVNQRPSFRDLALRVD
human TYK2 (JH2domain-pseudokinase), sequence (P29597 556-888): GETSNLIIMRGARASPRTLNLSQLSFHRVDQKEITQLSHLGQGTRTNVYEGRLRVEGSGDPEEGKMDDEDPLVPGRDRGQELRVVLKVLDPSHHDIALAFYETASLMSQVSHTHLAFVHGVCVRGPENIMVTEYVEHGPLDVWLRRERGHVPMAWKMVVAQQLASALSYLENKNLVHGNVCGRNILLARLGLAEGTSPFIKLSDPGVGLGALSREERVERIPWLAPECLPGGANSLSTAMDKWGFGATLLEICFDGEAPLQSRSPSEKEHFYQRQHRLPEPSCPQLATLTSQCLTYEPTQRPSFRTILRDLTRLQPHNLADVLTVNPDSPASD

CNc1cc(Nc2cccn(-c3ccc(C)nc3)c2=O)nc2c(C(=O)NCC(C)(C)CO)cnn12 [I-767]
Kd [1]: < 0.2 nM | inhibition at 10 µM (Tyk2 kinase domain (DH1)): < 50% | inhibition at 10 µM (JAK2 kinase domain (JH1)): < 50%

CNc1cc(Nc2cccn(-c3nc(C)co3)c2=O)nc2c(C(=O)N[C@@H]3CC[C@H]3O)cnn12 [I-768]
Kd [1]: < 0.2 nM | inhibition at 10 µM (Tyk2 kinase domain (DH1)): < 50% | inhibition at 10 µM (JAK2 kinase domain (JH1)): < 50%

CNc1cc(Nc2cccc3ocnc23)nc2c(C(=O)N[C@H]3CC[C@H]3O)cnn12 [I-771]
Kd [1]: 0.2 to 1 nM | inhibition at 10 µM (Tyk2 kinase domain (DH1)): < 50% | inhibition at 10 µM (JAK2 kinase domain (JH1)): < 50%

CNc1cc(Nc2cccc([C@H]3CCCOC3)n2)nc2c(C(=O)N[C@H]3COC[C@H]3O)cnn12 [I-774]
Kd [1]: 1 to 10 nM | Tyk2 JH1% Inhibition @ 10 μM (Tyk2 kinase domain (DH1)): A (percent inhibition at 10 μM lower than 50) | JAK2 JH1% Inhibition @ 10 μM (JAK2 kinase domain (JH1)): A (percent inhibition at 10 μM lower than 50)

CNc1cc(Nc2cccc([C@H]3CCCOC3)n2)nc2c(C(=O)N[C@@H]3COC[C@@H]3O)cnn12 [I-775]
Kd [1]: < 0.2 nM | Tyk2 JH1% Inhibition @ 10 μM (Tyk2 kinase domain (DH1)): A (percent inhibition at 10 μM lower than 50) | JAK2 JH1% Inhibition @ 10 μM (JAK2 kinase domain (JH1)): A (percent inhibition at 10 μM lower than 50)

CNc1cc(-c2cn(CCN3CCOCC3)c3ncccc23)nc2c(C(=O)N[C@H]3CC[C@H]3O)cnn12 [I-778]
Kd [1]: < 0.2 nM | inhibition at 10 µM (Tyk2 kinase domain (DH1)): < 50% | inhibition at 10 µM (JAK2 kinase domain (JH1)): < 50%

CNc1cc(-c2cn(CCN3CCOCC3)c3ncccc23)nc2c(C(=O)N[C@@H]3CC[C@@H]3O)cnn12 [I-779]
Kd [1]: 0.2 to 1 nM | Tyk2 JH1% Inhibition @ 10 μM (Tyk2 kinase domain (DH1)): A (percent inhibition at 10 μM lower than 50) | JAK2 JH1% Inhibition @ 10 μM (JAK2 kinase domain (JH1)): A (percent inhibition at 10 μM lower than 50)

CNc1cc(Nc2cccn([C@@H]3CCCOC3)c2=O)nc2c(C(=O)N[C@H]3CCC[C@H](O)C3)cnn12 [I-781]
Kd [1]: < 0.2 nM | Tyk2 JH1% Inhibition @ 10 μM (Tyk2 kinase domain (DH1)): A (percent inhibition at 10 μM lower than 50) | JAK2 JH1% Inhibition @ 10 μM (JAK2 kinase domain (JH1)): A (percent inhibition at 10 μM lower than 50)

CNc1cc(Nc2cccn([C@H]3CCCOC3)c2=O)nc2c(C(=O)N[C@H]3COC[C@H]3O)cnn12 [I-784]
Kd [1]: > 10 nM | Tyk2 JH1% Inhibition @ 10 μM (Tyk2 kinase domain (DH1)): A (percent inhibition at 10 μM lower than 50) | JAK2 JH1% Inhibition @ 10 μM (JAK2 kinase domain (JH1)): A (percent inhibition at 10 μM lower than 50)

CNc1cc(Nc2cccn([C@H]3CCCOC3)c2=O)nc2c(C(=O)N[C@@H]3COC[C@@H]3O)cnn12 [I-785]
Kd [1]: < 0.2 nM | inhibition at 10 µM (Tyk2 kinase domain (DH1)): < 50% | inhibition at 10 µM (JAK2 kinase domain (JH1)): < 50%

CNc1cc(Nc2cccn([C@@H]3CCCOC3)c2=O)nc2c(C(=O)N[C@@H]3COC[C@@H]3O)cnn12 [I-787]
Kd [1]: > 10 nM | inhibition at 10 µM (Tyk2 kinase domain (DH1)): < 50% | inhibition at 10 µM (JAK2 kinase domain (JH1)): < 50%

CNc1cc(Nc2cccn([C@@H]3C[C@H]3F)c2=O)nc2c(C(=O)NC3CC3)cnn12 [I-788]
Kd [1]: < 0.2 nM | inhibition at 10 µM (Tyk2 kinase domain (DH1)): < 50% | inhibition at 10 µM (JAK2 kinase domain (JH1)): < 50%

CNc1cc(-c2cn(CCN3CCOCC3)c3ncccc23)nc2c(C(=O)N[C@@H]3CC[C@H]3O)cnn12 [I-792, N-(2-hydroycyclobutyl)-7-(methylamino)-5-(1-(2-morpholinoethyl)-1H-pyrrolo[2,3-b]pyridine-3-yl)pyrazolo[1,5-a]pyrimidine-3-carboxamide]
Kd [1]: < 0.2 nM | inhibition at 10 µM (Tyk2 kinase domain (DH1)): < 50% | inhibition at 10 µM (JAK2 kinase domain (JH1)): < 50%

CNc1cc(-c2cn(CCN3CCCCC3)c3ncccc23)nc2c(C(=O)N[C@@H]3CC[C@@H]3O)cnn12 [I-793]
Kd [1]: < 0.2 nM | inhibition at 10 µM (Tyk2 kinase domain (DH1)): < 50% | inhibition at 10 µM (JAK2 kinase domain (JH1)): < 50%

CNc1cc(-c2cn(CCN3CCCCC3)c3ncccc23)nc2c(C(=O)N[C@@H]3CC[C@H]3O)cnn12 [I-794]
Kd [1]: < 0.2 nM | inhibition at 10 µM (Tyk2 kinase domain (DH1)): < 50% | inhibition at 10 µM (JAK2 kinase domain (JH1)): < 50%

CNc1cc(Nc2cccn([C@H]3CCC[C@@H](OC)C3)c2=O)nc2c(C(=O)N[C@@H]3C[C@@H]3F)cnn12 [I-795]
Kd [1]: < 0.2 nM | inhibition at 10 µM (Tyk2 kinase domain (DH1)): < 50% | inhibition at 10 µM (JAK2 kinase domain (JH1)): < 50%

CNc1cc(-c2cn(CCN3CCOCC3)c3ncccc23)nc2c(C(N)=O)cnn12 [I-796, 7-(methylamino)-5-(1-(2-morpholinoethyl)-1H-pyrrolo[2,3-b]pyridin-3-yl)pyrazolo[1,5-a]pyrimidine-3-carboxamide]
Kd [1]: < 0.2 nM | inhibition at 10 µM (Tyk2 kinase domain (DH1)): < 50% | inhibition at 10 µM (JAK2 kinase domain (JH1)): < 50%

CNc1cc(-c2cn(CCN3CCCCC3)c3ncccc23)nc2c(C(N)=O)cnn12 [I-797]
Kd [1]: < 0.2 nM | inhibition at 10 µM (Tyk2 kinase domain (DH1)): < 50% | inhibition at 10 µM (JAK2 kinase domain (JH1)): < 50%

CNc1cc(Nc2cc(Cl)cn([C@@H]3CCCOC3)c2=O)nc2c(C(=O)N[C@H]3[C@@H]4COC[C@@H]43)cnn12 [I-799]
Kd [1]: 0.2 to 1 nM | inhibition at 10 µM (Tyk2 kinase domain (DH1)): < 50% | inhibition at 10 µM (JAK2 kinase domain (JH1)): < 50%
